Data set [1] deals with HIV-1 NL4-3 Nanoluc-sec virus. The class given is cell-based. The following applies: for TI: CC50/EC50: CC50 (MT4) / EC50 (NL4-3); for anti-HIV activity in words: HIV-1 NL4-3 replication in MT4 cells.
Data set [2] deals with bevirimat-resistant HIV viruses NL4-3-V370A. The experiment in a line: Activity against bevirimat-resistant HIV virus NL4-3-V370A. It is filed as cell-based.

The structures appear in SMILES notation.

As to `CC(=O)O[C@H]1[C@@H](OC(C)=O)[C@@]2(C)[C@@H]3CC[C@H]4C(C)(C)[C@@H](O[C@@H]5OC[C@@H](O)[C@H](O)[C@H]5O)CC[C@@]45C[C@@]35CC[C@@]23CO[C@@]2(C(C)(C)O)CC[C@](C)(O2)[C@@H]13` [Compound 1, beesioside I], the “TI: CC50/EC50” value in data set [1] is on record as greater than 17.2. `CC1(C)[C@@H](O[C@@H]2OC[C@@H](O)[C@H](O)[C@H]2O)CC[C@]23C[C@]24CC[C@]25CO[C@@]6(C(C)(C)O)CC[C@](C)(O6)[C@H]2[C@@H](O)[C@@H](O)[C@@]5(C)[C@@H]4CC[C@@H]13` [Compound 1a, (20S,24S)-18,24;20,24-Diepoxy-9,19-cyclolanostane-3β, 15β, 16β,25-tetraol 3-O-β-D-xylopyrano-side]: in data set [1], the “TI: CC50/EC50” value is greater than 5.2 and the “anti-HIV activity in words” value was “less potent”. Regarding `CC(=O)O[C@H]1[C@@H](O)[C@@]2(C)[C@@H]3CC[C@H]4C(C)(C)[C@@H](O[C@@H]5OC[C@@H](O)[C@H](O)[C@H]5O)CC[C@@]45C[C@@]35CC[C@@]23CO[C@@]2(C(C)(C)O)CC[C@](C)(O2)[C@@H]13` [Compound 2, beesioside K], the “TI: CC50/EC50” value in data set [1] is recorded as greater than 8.6.

Regarding `CC(=O)O[C@H]1[C@H](O)[C@H]([C@]2(C)CC[C@@H](C(C)(C)O)O2)[C@@]2(C)CC[C@@]34C[C@@]35CC[C@H](O[C@@H]3OC[C@@H](O)[C@H](O)[C@H]3O)C(C)(C)[C@@H]5CC[C@H]4[C@]12C` [Compound 4, beesioside M], the “TI: CC50/EC50” value in data set [1] is given as greater than 8.2.

As for `CC(C)(O)[C@@H]1CC[C@@](C)([C@H]2[C@@H](O)[C@H](O)[C@@]3(C)[C@@H]4[C@@H](O)C[C@H]5C(C)(C)[C@@H](O[C@@H]6OC[C@@H](O)[C@H](O)[C@H]6O)CC[C@@]56C[C@@]46CC[C@]23C)O1` [Compound 5, soulieoside N], the “anti-HIV activity in words” value in data set [1] is “inactive”. Consider `CC(=O)O[C@H]1[C@@H]2O[C@@]3(C(C)(C)O)CC[C@](C)(O3)[C@@H]2[C@@]2(CO)CC[C@@]34C[C@@]35CC[C@H](O[C@@H]3OC[C@@H](O)[C@H](O)[C@H]3O)C(C)(C)[C@@H]5CC[C@H]4[C@]12C` [Compound 9, (20S,24S)-15α-acetoxy-16β,24;20,24-diepoxy-3β-(β-D-xylopyranosyloxy)-9,19-cyclolanostane-18,25-diol], for which the “anti-HIV activity in words” value in data set [1] was “inactive”. Regarding `CC(=O)O[C@H]1[C@H](O)[C@@]2(C)[C@@H]3CC[C@H]4C(C)(C)[C@@H](O[C@@H]5OC[C@@H](O)[C@H](O)[C@H]5O)CC[C@@]45C[C@@]35CC[C@@]23CO[C@@](C)(CCC(=O)C(C)(C)O)[C@@H]13` [Compound 11, soulieoside O], the “anti-HIV activity in words” value in data set [1] is “inactive”.

Take `CC(=O)O[C@H]1[C@@H](OC(C)=O)[C@@]2(C)[C@@H]3CC[C@H]4C(C)(C)[C@@H](O[C@@H]5OC[C@@H](O)[C@H](O)[C@H]5O)CC[C@@]45C[C@@]35CC[C@@]23CO[C@@](C)(CCC(=O)C(C)(C)O)[C@@H]13` [Compound 12, soulieoside P]: the “anti-HIV activity in words” value in data set [1] was “inactive”.

Regarding `CC(=O)O[C@H]1[C@@H](OC(C)=O)[C@@]2(C)[C@@H]3CC[C@H]4C(C)(C)[C@@H](O)CC[C@@]45C[C@@]35CC[C@@]23CO[C@@]2(C(C)(C)O)CC[C@](C)(O2)[C@@H]13` [Compound 13, (20S,24S)-15β, 16β-Diacetoxy-18,24;20,24-diepoxy-9,19-cyclolanostane-3β,25-diol], the “anti-HIV activity in words” value in data set [1] was “inactive”.

With `CC(=O)O[C@H]1[C@@H](OC(C)=O)[C@@]2(C)[C@@H]3CC[C@H]4C(C)(C)[C@@H](OC(C)=O)CC[C@@]45C[C@@]35CC[C@@]23CO[C@@]2(C(C)(C)O)CC[C@](C)(O2)[C@@H]13` [Compound 13a, (20S, 24S)-15β, 16β-Diacetoxy-18,24;20,24-diepoxy-9,19-cyclolanostane-25-hydroxy-3β-yl acetate], the “TI: CC50/EC50” value in data set [1] was greater than 16.4.

`CC1(C)[C@@H](O)CC[C@]23C[C@]24CC[C@]25CO[C@@]6(C(C)(C)O)CC[C@](C)(O6)[C@H]2[C@@H](O)[C@@H](O)[C@@]5(C)[C@@H]4CC[C@@H]13` [Compound 13d, (20S, 24S)-18,24;20,24-Diepoxy-9,19-cyclolanostane-3β, 15β, 16β, 25-tetraol]: the “anti-HIV activity in words” value in data set [1] is “inactive”. As to `CC(=O)O[C@H]1[C@@H](OC(C)=O)[C@@]2(C)[C@@H]3CC[C@H]4C(C)(C)[C@@H](OC(=O)CCC(=O)O)CC[C@@]45C[C@@]35CC[C@@]23CO[C@@]2(C(C)(C)O)CC[C@](C)(O2)[C@@H]13` [Compound 13e, (20S,24S)-15β,16β-Diacetoxy-18,24;20,24-diepoxy-9,19-cyclolanostane-3β,25-diol 3-O-succinate], the “TI: CC50/EC50” value in data set [1] is recorded as greater than 5.2. In the case of `CC(=O)O[C@H]1[C@@H](OC(C)=O)[C@@]2(C)[C@@H]3CC[C@H]4C(C)(C)[C@@H](OC(=O)CC(C)C(=O)O)CC[C@@]45C[C@@]35CC[C@@]23CO[C@@]2(C(C)(C)O)CC[C@](C)(O2)[C@@H]13` (stereo partly drawn) [Compound 13f, (RS-3′-20S, 24S)-15β,16β-Diacetoxy-18,24;20,24-diepoxy-9,19-cyclolanostane-3β, 25-diol 3-O-3′-methylsuccinate], the “TI: CC50/EC50” value in data set [1] is listed as greater than 18.0. With `CC(=O)O[C@H]1[C@@H](OC(C)=O)[C@@]2(C)[C@@H]3CC[C@H]4C(C)(C)[C@@H](OC(=O)CC(C)(C)C(=O)O)CC[C@@]45C[C@@]35CC[C@@]23CO[C@@]2(C(C)(C)O)CC[C@](C)(O2)[C@@H]13` [Compound 13g, (20S, 24S)-15β,16β-Diacetoxy-18,24;20,24-diepoxy-9,19-cyclolanostane-3β, 25-diol 3-O-3′,3′-dimethylsuccinate], the “activity against bevirimat-resistant HIV viruses NL4-3-V370A” value in data set [2] is given as “no significant effects”. In data set [1] (relative to compound 1), the “fold more potent than 1 (anti-HIV activity)” value is on record as “approximately 100 fold”. With `CC(=O)O[C@H]1[C@@H](OC(C)=O)[C@@]2(C)[C@@H]3CC[C@H]4C(C)(C)[C@@H](OC(=O)CCC(C)(C)C(=O)O)CC[C@@]45C[C@@]35CC[C@@]23CO[C@@]2(C(C)(C)O)CC[C@](C)(O2)[C@@H]13` [Compound 13j, (20S, 24S)-15β,16β-Diacetoxy-18,24;20,24-diepoxy-9,19-cyclolanostane-3β, 25-diol 3-O-4',4'-dimethylglutarate], the “TI: CC50/EC50” value in data set [1] is greater than 104. Regarding `CC(=O)O[C@H]1[C@@H](OC(C)=O)[C@@]2(C)[C@@H]3CC[C@H]4C(C)(C)[C@@H](OC(=O)CC5(CC(=O)O)CCCC5)CC[C@@]45C[C@@]35CC[C@@]23CO[C@@]2(C(C)(C)O)CC[C@](C)(O2)[C@@H]13` [Compound 13l, (20S,24S)-15β,16β-Diacetoxy-18,24;20,24-diepoxy-9,19-cyclolanostane-3β,25-diol 3-O-3′,3′-tetramethyleneglutarate], the “TI: CC50/EC50” value in data set [1] is reported as greater than 12.6.

As to `CC(=O)O[C@H]1[C@@H](OC(C)=O)[C@@]2(C)[C@@H]3CC[C@H]4C(C)(C)[C@@H](OC(=O)COCC(=O)O)CC[C@@]45C[C@@]35CC[C@@]23CO[C@@]2(C(C)(C)O)CC[C@](C)(O2)[C@@H]13` [Compound 13m, (20S,24S)-15β, 16β-Diacetoxy-18,24;20,24-diepoxy-9,19-cyclolanostane-3β,25-diol 3-O-diglycolate], the “TI: CC50/EC50” value in data set [1] is on record as greater than 41.7.

The record behind these values is PMC6464118 (European journal of medicinal chemistry, 2019).
